From ChEMBL document CHEMBL1201862, “PubChem BioAssay data set” (2004)
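Interpolation was linear, between the two tested concentrations surrounding the appropriate level; five concentrations were tested over 48 hours in 96-well plates. The concentration for 50% growth inhibition is given as GI50.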 Calls of active or inactive are those of the source. No stated cut-off is given here; in the data, active = GI50 up to about 1.1 µM and inactive = higher.

Columns and labels:
Test in all cases: growth of human tumour cells (NCI), 48 h
HCT-116 = test system: HCT-116
OVCAR-3 = test system: OVCAR-3
NCI-H460 = test system: NCI-H460
T47D = test system: T47D
SR = test system: SR
SNB-75 = test system: SNB-75
SW-620 = test system: SW-620
DU-145 = test system: DU-145
786-0 = test system: 786-0
HL-60 = test system: HL-60
A549 = test system: A549
TK-10 = test system: TK-10
MDA-MB-231 = test system: MDA-MB-231
CAKI-1 = test system: CAKI-1
UACC-257 = test system: UACC-257
RPMI-8226 = test system: RPMI-8226
SN12C = test system: SN12C
HT-29 = test system: HT-29
UO-31 = test system: UO-31
OVCAR-8 = test system: OVCAR-8
OVCAR-4 = test system: OVCAR-4
K562 = test system: K562
HOP-62 = test system: HOP-62
KM12 = test system: KM12
LOX IMVI = test system: LOX IMVI
A498 = test system: A498
OVCAR-5 = test system: OVCAR-5
U-251 = test system: U-251
Hs-578T = test system: Hs-578T
MOLT-4 = test system: MOLT-4
CCRF-CEM = test system: CCRF-CEM
SK-OV-3 = test system: SK-OV-3
MDA-N = test system: MDA-N
UACC-62 = test system: UACC-62
BT-549 = test system: BT-549
M14 = test system: M14
SF-539 = test system: SF-539
RXF 393 = test system: RXF 393
PC-3 = test system: PC-3
SK-MEL-5 = test system: SK-MEL-5
SNB-19 = test system: SNB-19
SF-295 = test system: SF-295
SK-MEL-28 = test system: SK-MEL-28
MCF7 = test system: MCF7
NCI-H23 = test system: NCI-H23
HOP-92 = test system: HOP-92
SF-268 = test system: SF-268
COLO 205 = test system: COLO 205
HCT-15 = test system: HCT-15
MDA-MB-435 = test system: MDA-MB-435
NCI/ADR-RES = test system: NCI/ADR-RES
HCC 2998 = test system: HCC 2998
IGROV-1 = test system: IGROV-1
SK-MEL-2 = test system: SK-MEL-2
ACHN = test system: ACHN
Malme-3M = test system: Malme-3M
EKVX = test system: EKVX
NCI-H226 = test system: NCI-H226
NCI-H522 = test system: NCI-H522

In the case of `c1ccc(C2SCC3=Nc4ccccc4CN32)cc1` (configuration not stated), the GI50 (HCT-116) is reported as 14.8 µM (inactive), the GI50 (OVCAR-3) is reported as 0.78 µM (active) and the GI50 (NCI-H460) is reported as 54 µM (inactive). For the same compound, the GI50 (T47D) was 25.8 µM (inactive), the GI50 (SR) was 31.4 µM (inactive) and the GI50 (SNB-75) was 30.5 µM (inactive). For the same compound, the GI50 (SW-620) was 87.5 µM (inactive), the GI50 (DU-145) was 24.9 µM (inactive) and the GI50 (786-0) was 21.3 µM (inactive). For the same compound, the GI50 (HL-60) was 23.6 µM (inactive), the GI50 (A549) was 53.8 µM (inactive) and the GI50 (TK-10) was 75.2 µM (inactive). For the same compound, the GI50 (MDA-MB-231) was > 100 µM (inactive), the GI50 (CAKI-1) was > 100 µM (inactive) and the GI50 (UACC-257) was 94.6 µM (inactive). For the same compound, the GI50 (RPMI-8226) was 39.8 µM (inactive), the GI50 (SN12C) was > 100 µM (inactive) and the GI50 (HT-29) was 17.8 µM (inactive). For the same compound, the GI50 (UO-31) was 29.9 µM (inactive), the GI50 (OVCAR-8) was 18.2 µM (inactive) and the GI50 (OVCAR-4) was 78.2 µM (inactive). For the same compound, the GI50 (K562) was 33.5 µM (inactive), the GI50 (HOP-62) was 26.1 µM (inactive) and the GI50 (KM12) was 43.5 µM (inactive). The GI50 (LOX IMVI) was 36 µM (inactive), the GI50 (A498) was > 100 µM (inactive) and the GI50 (OVCAR-5) was 25.8 µM (inactive). The GI50 (U-251) was 63 µM (inactive), the GI50 (Hs-578T) was 73.8 µM (inactive) and the GI50 (MOLT-4) was 34.7 µM (inactive). For the same compound, the GI50 (CCRF-CEM) was 34.2 µM (inactive), the GI50 (SK-OV-3) was 23.4 µM (inactive) and the GI50 (MDA-N) was 87.7 µM (inactive). The GI50 (UACC-62) was 60.1 µM (inactive), the GI50 (BT-549) was > 100 µM (inactive) and the GI50 (M14) was 31 µM (inactive). The GI50 (SF-539) was 28.4 µM (inactive), the GI50 (RXF 393) was 10.8 µM (inactive) and the GI50 (PC-3) was 25.9 µM (inactive). The GI50 (SK-MEL-5) was 14.4 µM (inactive), the GI50 (SNB-19) was 13.4 µM (inactive) and the GI50 (SF-295) was 14.7 µM (inactive). The GI50 (SK-MEL-28) was 50.4 µM (inactive), the GI50 (MCF7) was 26.9 µM (inactive) and the GI50 (NCI-H23) was 16.6 µM (inactive). For the same compound, the GI50 (HOP-92) was 50.8 µM (inactive), the GI50 (SF-268) was 78.5 µM (inactive) and the GI50 (COLO 205) was 19.4 µM (inactive). For the same compound, the GI50 (HCT-15) was 51.4 µM, the GI50 (MDA-MB-435) was 29.7 µM (inactive) and the GI50 (NCI/ADR-RES) was 17.5 µM (inactive). The GI50 (HCC 2998) was 61.7 µM (inactive).

For `COC(=O)/C=C(/C)n1nc2ccccc2n1`, the GI50 (HCT-116) was > 100 µM (inactive), the GI50 (OVCAR-3) was > 100 µM (inactive) and the GI50 (NCI-H460) was > 100 µM (inactive). For the same compound, the GI50 (T47D) was > 100 µM (inactive), the GI50 (SR) was > 100 µM (inactive) and the GI50 (SNB-75) was > 100 µM (inactive). For the same compound, the GI50 (SW-620) was > 100 µM (inactive), the GI50 (DU-145) was > 100 µM (inactive) and the GI50 (786-0) was > 100 µM (inactive). For the same compound, the GI50 (A549) was > 100 µM (inactive), the GI50 (IGROV-1) was > 100 µM (inactive) and the GI50 (TK-10) was > 100 µM (inactive). The GI50 (MDA-MB-231) was > 100 µM (inactive), the GI50 (CAKI-1) was > 100 µM (inactive) and the GI50 (UACC-257) was > 100 µM (inactive). For the same compound, the GI50 (RPMI-8226) was 22.4 µM (inactive), the GI50 (SN12C) was > 100 µM (inactive) and the GI50 (HT-29) was > 100 µM (inactive). For the same compound, the GI50 (UO-31) was > 100 µM (inactive), the GI50 (SK-MEL-2) was > 100 µM (inactive) and the GI50 (OVCAR-8) was > 100 µM (inactive). For the same compound, the GI50 (ACHN) was > 100 µM (inactive), the GI50 (Malme-3M) was > 100 µM (inactive) and the GI50 (OVCAR-4) was > 100 µM (inactive). For the same compound, the GI50 (K562) was > 100 µM (inactive), the GI50 (HOP-62) was > 100 µM (inactive) and the GI50 (KM12) was > 100 µM (inactive). The GI50 (A498) was 77.3 µM (inactive), the GI50 (EKVX) was 37.7 µM (inactive) and the GI50 (OVCAR-5) was > 100 µM (inactive). For the same compound, the GI50 (U-251) was > 100 µM (inactive), the GI50 (Hs-578T) was > 100 µM (inactive) and the GI50 (MOLT-4) was > 100 µM (inactive). For the same compound, the GI50 (CCRF-CEM) was > 100 µM (inactive), the GI50 (SK-OV-3) was > 100 µM (inactive) and the GI50 (MDA-N) was > 100 µM (inactive). For the same compound, the GI50 (UACC-62) was > 100 µM (inactive), the GI50 (BT-549) was > 100 µM (inactive) and the GI50 (M14) was > 100 µM (inactive). For the same compound, the GI50 (RXF 393) was > 100 µM (inactive), the GI50 (PC-3) was > 100 µM (inactive) and the GI50 (SK-MEL-5) was > 100 µM (inactive). The GI50 (NCI-H226) was > 100 µM (inactive), the GI50 (SNB-19) was > 100 µM (inactive) and the GI50 (SF-295) was > 100 µM (inactive). The GI50 (SK-MEL-28) was > 100 µM (inactive), the GI50 (MCF7) was > 100 µM (inactive) and the GI50 (NCI-H522) was > 100 µM (inactive). The GI50 (NCI-H23) was > 100 µM (inactive), the GI50 (SF-268) was > 100 µM (inactive) and the GI50 (COLO 205) was > 100 µM (inactive). The GI50 (HCT-15) was greater than 100 µM, the GI50 (MDA-MB-435) was > 100 µM (inactive) and the GI50 (NCI/ADR-RES) was > 100 µM (inactive). The GI50 (HCC 2998) was > 100 µM (inactive).
